Results on 15 compounds are retold here after ChEMBL document CHEMBL4130451, “Design and Synthesis of N-Aryl Phenoxyethoxy Pyridinones as Highly Selective and CNS Penetrant mGlu3 NAMs” (ACS Med Chem Lett, 2017).

The source made the active and inactive calls. The calls are words filed in the database; no cut-off is given here.

The subject of data set [1] is Mus musculus. Put plainly: Antidepressant activity in CD-1 mouse assessed as reduction in immobility time at 30 mg/kg administered ip 15 mins prior to test measured for 6 mins by tail suspension test. The class given is functional, organism-based.
The target of data set [2] is Metabotropic glutamate receptor 3 (Rattus norvegicus, UniProt P31422). Put plainly: Negative allosteric modulation of rat mGlu3 receptor expressed in TREX cells coexpressing Galpha15 assessed as inhibition of glutamate induced-calcium mobilization preincubated for 2.3 mins followed by glutamate addition measured for 2.6 mins by Fluo-4 AM dye based fluorescence assay. The class given is functional, cell-based. Background: A change in cytosolic calcium serves as a functional read-out for many receptors and channels.

In data set [3] the target is Metabotropic glutamate receptor 3 (Rattus norvegicus) (UniProt P31422). Put plainly: Negative allosteric modulation of rat mGlu3 receptor expressed in TREX cells coexpressing Galpha15 assessed as inhibition of glutamate induced-calcium mobilization by measuring minimum glutamate response preincubated for 2.3 mins followed by glutamate addition measured for 2.6 mins by Fluo-4 AM dye based fluorescence assay relative to glutamate. The class given is functional, cell-based.

Data set [4] has as its target Metabotropic glutamate receptor 5 (Rattus norvegicus) (UniProt P31424). Nature of the data set: Positive allosteric modulation of rat mGlu5 receptor expressed in HEK293A cells assessed as increase in glutamate induced-calcium mobilization by measuring maximum glutamate response preincubated for 2.3 mins followed by glutamate addition measured for 1.9 mins by Fluo-4 AM dye based fluorescence assay relative to glutamate. The class given is functional, cell-based.

For another data set, the species on record is Rattus norvegicus. Put plainly: Selectivity ratio of EC50 for positive allosteric modulation of rat mGlu5 receptor expressed in HEK293A cells to IC50 for negative allosteric modulation of rat mGlu3 receptor expressed in TREX cells coexpressing Galpha15. The class given is cell-based.
Data set [5] has as its target Metabotropic glutamate receptor 5 (Rattus norvegicus, UniProt P31424). Put plainly: Positive allosteric modulation of rat mGlu5 receptor expressed in HEK293A cells assessed as increase in glutamate induced-calcium mobilization preincubated for 2.3 mins followed by glutamate addition measured for 1.9 mins by Fluo-4 AM dye based fluorescence assay. The class given is functional, cell-based.

A short description of data set [6]: Ratio of drug uptake in Harlan CD-1 mouse brain at 3 mg/kg, ip to IC50 for negative allosteric modulation of rat mGlu2 receptor expressed in HEK293 cells coexpressing Galpha15. It is filed as ADME, organism-based. The note with it: in vivo.
The subject of data set [7] is Mus musculus. Put plainly: Antidepressant activity in CD-1 mouse assessed as reduction in immobility time up to 30 mg/kg administered ip 15 mins prior to test measured for 6 mins by tail suspension test. The class given is functional, organism-based.
A short description of data set [8]: Drug uptake in Harlan CD-1 mouse brain at 3 mg/kg, ip by LC/MS-MS analysis. The note with it: in vivo, read-out: Drug uptake. The class given is ADME, organism-based.
Data set [9] has as its target Metabotropic glutamate receptor 2 (Rattus norvegicus, UniProt P31421). Put plainly: Negative allosteric modulation of rat mGlu2 receptor expressed in HEK293 cells coexpressing Galpha15 assessed as inhibition of glutamate induced-calcium mobilization preincubated for 2.3 mins followed by glutamate addition measured for 1.9 mins by Fluo-4 AM dye based fluorescence assay. It is filed as functional, cell-based.

Data set [10] can be described thus: Fraction unbound in rat plasma at 5 uM after 4 hrs by equilibrium dialysis based LC/MS/MS analysis. It is filed as ADME, cell-free.
Another data set has as its target Cytochrome P450 3A4 (Homo sapiens, UniProt P08684). Put plainly: Inhibition of CYP3A4 in human liver microsomes using midazolam as substrate after 15 mins in presence of NADPH by LC/MS/MS analysis. The class given is ADME.
For another data set, the target named is Cytochrome P450 2D6 (Homo sapiens, UniProt P10635). Nature of the data set: Inhibition of CYP2D6 in human liver microsomes using dextromethorphan as substrate after 15 mins in presence of NADPH by LC/MS/MS analysis. It is filed as ADME.
A further data set concerns the target Cytochrome P450 2C9 (Homo sapiens, UniProt P11712). Nature of the data set: Inhibition of CYP2C9 in human liver microsomes using diclofenac as substrate after 15 mins in presence of NADPH by LC/MS/MS analysis. The class given is ADME.
Another data set deals with Cytochrome P450 1A2 (Homo sapiens, UniProt P05177). Put plainly: Inhibition of CYP1A2 in human liver microsomes using phenacetin as substrate after 15 mins in presence of NADPH by LC/MS/MS analysis. It is filed as ADME. In general terms: Liver microsomes are a subcellular fraction often used to study metabolism.
The nature of data set [11]: Fraction unbound in human plasma at 5 uM after 4 hrs by equilibrium dialysis based LC/MS/MS analysis. It is filed as ADME, cell-free. (In general: In equilibrium dialysis only unbound substance equilibrates across the membrane.)
Data set [12] can be described thus: Fraction unbound in rat brain homogenate at 5 uM after 6 hrs by equilibrium dialysis based LC/MS/MS analysis. The class given is ADME, tissue-based.
Data set [13] in a line: Brain to plasma partition coefficient, Kp of the compound in rat. It is filed as ADME.
The nature of data set [14]: Unbound brain-to-plasma concentration ratio in rat. It is filed as ADME. The note with it: read-out: K(p,uu,brain).

Sequence of Metabotropic glutamate receptor 5 (P31424 whole entry): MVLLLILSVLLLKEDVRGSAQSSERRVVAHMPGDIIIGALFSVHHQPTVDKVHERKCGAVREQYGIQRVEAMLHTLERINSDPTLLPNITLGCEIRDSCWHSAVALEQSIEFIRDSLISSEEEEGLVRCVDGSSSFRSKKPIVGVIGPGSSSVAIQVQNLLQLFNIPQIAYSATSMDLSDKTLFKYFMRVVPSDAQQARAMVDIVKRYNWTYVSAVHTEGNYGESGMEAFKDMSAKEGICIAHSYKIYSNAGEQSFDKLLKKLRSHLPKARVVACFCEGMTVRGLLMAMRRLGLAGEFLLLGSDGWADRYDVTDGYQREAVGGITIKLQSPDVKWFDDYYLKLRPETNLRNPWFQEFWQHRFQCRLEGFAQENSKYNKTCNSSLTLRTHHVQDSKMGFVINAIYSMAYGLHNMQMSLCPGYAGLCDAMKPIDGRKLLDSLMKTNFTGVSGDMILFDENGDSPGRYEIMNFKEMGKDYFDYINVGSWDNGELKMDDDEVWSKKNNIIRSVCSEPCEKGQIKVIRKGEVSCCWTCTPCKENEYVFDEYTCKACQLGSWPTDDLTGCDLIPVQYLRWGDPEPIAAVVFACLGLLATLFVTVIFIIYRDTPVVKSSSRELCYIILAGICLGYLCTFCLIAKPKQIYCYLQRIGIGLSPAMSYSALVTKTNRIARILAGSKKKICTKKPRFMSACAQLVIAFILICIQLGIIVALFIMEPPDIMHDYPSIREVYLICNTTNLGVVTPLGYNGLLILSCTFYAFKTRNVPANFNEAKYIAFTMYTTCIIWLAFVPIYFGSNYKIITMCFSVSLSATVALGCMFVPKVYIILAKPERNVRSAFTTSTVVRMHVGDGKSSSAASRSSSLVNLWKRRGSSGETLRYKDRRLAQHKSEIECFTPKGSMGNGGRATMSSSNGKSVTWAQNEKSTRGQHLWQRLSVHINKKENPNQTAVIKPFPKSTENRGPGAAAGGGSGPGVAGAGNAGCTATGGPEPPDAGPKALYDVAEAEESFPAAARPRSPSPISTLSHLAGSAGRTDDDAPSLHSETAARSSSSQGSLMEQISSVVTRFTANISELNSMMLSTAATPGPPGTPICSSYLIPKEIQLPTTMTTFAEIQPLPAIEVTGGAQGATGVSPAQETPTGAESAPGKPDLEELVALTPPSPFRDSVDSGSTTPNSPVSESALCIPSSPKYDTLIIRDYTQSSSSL
Sequence of Metabotropic glutamate receptor 3 (P31422 whole entry): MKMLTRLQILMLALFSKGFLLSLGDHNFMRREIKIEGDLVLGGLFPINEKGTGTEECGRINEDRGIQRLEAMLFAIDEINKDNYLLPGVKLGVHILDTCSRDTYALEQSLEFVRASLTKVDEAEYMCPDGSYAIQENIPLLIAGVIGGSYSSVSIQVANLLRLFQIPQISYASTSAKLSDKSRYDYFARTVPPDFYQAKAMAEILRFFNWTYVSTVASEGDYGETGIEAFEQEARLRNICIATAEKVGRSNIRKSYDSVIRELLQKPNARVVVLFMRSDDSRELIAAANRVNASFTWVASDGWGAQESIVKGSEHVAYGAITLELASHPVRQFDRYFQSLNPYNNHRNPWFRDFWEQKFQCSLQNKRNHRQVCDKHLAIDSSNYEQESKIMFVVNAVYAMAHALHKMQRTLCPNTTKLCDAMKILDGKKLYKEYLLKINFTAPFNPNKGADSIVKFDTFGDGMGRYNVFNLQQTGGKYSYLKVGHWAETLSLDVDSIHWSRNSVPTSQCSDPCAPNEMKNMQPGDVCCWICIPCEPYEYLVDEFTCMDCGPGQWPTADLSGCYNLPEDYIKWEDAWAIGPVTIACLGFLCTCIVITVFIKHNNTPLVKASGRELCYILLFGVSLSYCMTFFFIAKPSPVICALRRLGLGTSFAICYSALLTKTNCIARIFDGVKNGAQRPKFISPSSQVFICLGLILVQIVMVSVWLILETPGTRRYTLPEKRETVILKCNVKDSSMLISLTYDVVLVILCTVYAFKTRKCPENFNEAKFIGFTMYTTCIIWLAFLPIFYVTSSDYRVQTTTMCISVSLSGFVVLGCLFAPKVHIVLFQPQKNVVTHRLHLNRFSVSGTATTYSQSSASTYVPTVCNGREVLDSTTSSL
Sequence of Metabotropic glutamate receptor 3 (Rattus norvegicus) (P31422 23-879 limits assumed): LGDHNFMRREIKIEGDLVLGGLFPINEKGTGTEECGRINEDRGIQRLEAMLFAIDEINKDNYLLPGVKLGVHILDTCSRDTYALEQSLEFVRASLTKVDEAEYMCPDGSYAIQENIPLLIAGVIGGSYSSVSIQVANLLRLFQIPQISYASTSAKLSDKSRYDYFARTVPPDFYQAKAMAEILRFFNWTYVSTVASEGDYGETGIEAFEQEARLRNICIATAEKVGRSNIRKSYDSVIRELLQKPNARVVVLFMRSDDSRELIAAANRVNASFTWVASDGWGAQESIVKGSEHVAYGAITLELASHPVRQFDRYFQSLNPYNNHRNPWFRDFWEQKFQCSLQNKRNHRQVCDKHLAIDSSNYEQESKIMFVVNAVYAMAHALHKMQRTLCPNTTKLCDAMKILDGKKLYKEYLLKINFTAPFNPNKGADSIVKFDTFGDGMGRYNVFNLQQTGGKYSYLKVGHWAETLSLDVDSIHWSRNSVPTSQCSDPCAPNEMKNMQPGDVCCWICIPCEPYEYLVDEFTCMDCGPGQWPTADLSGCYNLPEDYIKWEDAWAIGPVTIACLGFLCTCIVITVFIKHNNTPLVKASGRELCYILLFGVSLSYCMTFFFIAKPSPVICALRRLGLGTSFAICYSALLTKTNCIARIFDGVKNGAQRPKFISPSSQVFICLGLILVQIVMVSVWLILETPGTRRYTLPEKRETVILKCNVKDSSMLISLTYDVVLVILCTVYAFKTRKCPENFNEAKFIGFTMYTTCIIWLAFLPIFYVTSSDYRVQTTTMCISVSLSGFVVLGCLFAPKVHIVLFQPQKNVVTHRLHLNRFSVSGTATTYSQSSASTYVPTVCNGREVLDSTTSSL
Sequence of Metabotropic glutamate receptor 5 (Rattus norvegicus) (P31424 21-1203 limits assumed): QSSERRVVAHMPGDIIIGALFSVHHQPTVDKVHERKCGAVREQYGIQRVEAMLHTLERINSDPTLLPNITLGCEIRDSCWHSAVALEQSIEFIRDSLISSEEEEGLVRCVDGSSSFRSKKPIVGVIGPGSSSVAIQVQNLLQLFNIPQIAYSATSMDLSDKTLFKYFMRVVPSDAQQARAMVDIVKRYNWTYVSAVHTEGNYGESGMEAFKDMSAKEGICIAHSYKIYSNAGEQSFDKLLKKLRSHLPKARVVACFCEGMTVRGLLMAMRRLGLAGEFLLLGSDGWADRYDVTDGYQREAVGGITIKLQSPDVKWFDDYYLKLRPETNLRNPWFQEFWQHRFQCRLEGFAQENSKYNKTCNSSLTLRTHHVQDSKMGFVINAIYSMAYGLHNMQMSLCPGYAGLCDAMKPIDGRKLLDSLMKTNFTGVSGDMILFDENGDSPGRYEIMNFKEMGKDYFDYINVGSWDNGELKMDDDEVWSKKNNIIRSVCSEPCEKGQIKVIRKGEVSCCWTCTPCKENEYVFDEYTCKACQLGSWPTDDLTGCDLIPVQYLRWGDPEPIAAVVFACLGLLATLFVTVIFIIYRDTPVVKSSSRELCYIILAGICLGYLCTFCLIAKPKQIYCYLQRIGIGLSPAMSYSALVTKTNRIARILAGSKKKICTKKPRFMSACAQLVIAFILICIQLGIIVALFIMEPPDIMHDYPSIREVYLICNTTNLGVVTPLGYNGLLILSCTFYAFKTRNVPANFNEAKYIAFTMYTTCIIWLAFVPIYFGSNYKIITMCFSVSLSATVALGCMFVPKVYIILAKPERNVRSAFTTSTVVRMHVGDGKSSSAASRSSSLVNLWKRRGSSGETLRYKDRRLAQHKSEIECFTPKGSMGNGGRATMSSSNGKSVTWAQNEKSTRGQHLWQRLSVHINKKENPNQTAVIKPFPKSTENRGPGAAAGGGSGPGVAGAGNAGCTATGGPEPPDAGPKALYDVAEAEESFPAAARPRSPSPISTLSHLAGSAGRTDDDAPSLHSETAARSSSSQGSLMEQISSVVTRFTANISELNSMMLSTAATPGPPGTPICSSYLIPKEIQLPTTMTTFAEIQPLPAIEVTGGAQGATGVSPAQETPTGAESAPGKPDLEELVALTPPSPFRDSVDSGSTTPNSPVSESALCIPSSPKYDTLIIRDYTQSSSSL
Sequence of Metabotropic glutamate receptor 2 (P31421 whole entry, looked up): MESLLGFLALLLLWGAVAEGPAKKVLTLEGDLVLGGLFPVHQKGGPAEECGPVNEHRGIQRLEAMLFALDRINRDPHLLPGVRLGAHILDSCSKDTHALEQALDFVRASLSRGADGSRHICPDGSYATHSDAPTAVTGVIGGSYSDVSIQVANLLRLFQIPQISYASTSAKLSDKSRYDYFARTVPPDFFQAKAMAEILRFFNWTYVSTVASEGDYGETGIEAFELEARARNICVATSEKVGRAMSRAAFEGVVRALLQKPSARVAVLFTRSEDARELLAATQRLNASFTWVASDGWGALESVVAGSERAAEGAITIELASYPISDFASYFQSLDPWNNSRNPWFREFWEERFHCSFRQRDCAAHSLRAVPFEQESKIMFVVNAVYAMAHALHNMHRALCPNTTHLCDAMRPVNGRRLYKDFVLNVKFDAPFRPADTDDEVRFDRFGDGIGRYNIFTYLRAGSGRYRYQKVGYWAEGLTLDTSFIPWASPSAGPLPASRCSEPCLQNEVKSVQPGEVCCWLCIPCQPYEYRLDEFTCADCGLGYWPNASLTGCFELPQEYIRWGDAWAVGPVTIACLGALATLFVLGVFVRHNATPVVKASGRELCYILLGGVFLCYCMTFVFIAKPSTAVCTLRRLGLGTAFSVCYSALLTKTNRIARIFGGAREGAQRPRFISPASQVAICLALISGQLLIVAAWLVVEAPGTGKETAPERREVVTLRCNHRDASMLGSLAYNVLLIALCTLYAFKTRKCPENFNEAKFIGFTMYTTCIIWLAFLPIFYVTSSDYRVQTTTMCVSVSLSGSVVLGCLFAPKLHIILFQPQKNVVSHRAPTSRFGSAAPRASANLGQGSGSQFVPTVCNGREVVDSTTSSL

On to `CNC1(c2ccccc2Cl)CCCCC1=O` (stereo not drawn), for which, in the data set on Mus musculus [1], the outcome was Active.

Turning to `N#Cc1cccc(-n2ccc(OCCOc3ccccc3)cc2=O)c1`, the half-maximal inhibitory concentration (IC50) (as a rule, the concentration at which inhibition is half-maximal) in data set [2] is 340 nM. Also, the Emin in data set [3] is 3.63%. For the same compound, the Emax (in general, the maximal effect, on the per cent scale that the assay sets) in data set [4] was found to be 87%. For the same compound, in the data set filed under Rattus norvegicus, the Selectivity ratio turned out to be 18.

`O=c1nc(OCCOc2ccccc2)ccn1-c1ccc(F)c(F)c1`: the IC50 in data set [2] turned out to be 1020 nM. The Emin in data set [3] came to 3.77%. Further, the Emax in [4] was found to be 83%.

In the case of `O=c1cc(OCCOc2ccccc2)ccn1-c1ccc(F)c(F)c1`, in data set [2], the IC50 came out at 180 nM. In addition, the Emin in data set [3] was 3.53%. Besides, the 50% effective concentration (EC50) – broadly, the concentration at which the effect is half-maximal – in data set [5] is 340 nM. Besides, the maximal response (Emax) in [4] came to 91%.

`Cn1ccc(COc2cnc(C(N)=O)cc2-c2ccc(F)cc2)n1`: the Ratio in data set [6] is reported as 180. In addition, the outcome in the data set on Mus musculus [7] was inactive. Also, the concentration in data set [8] is 14 µM.

Consider `O=c1cc(OCCOc2cc(Cl)ccn2)ccn1-c1ccc(F)cc1`, for which the IC50 in [2] was 1450 nM. Further, the Emin in [3] was determined as 3.77%. For the same compound, the maximal effect (Emax) in data set [4] is 82%.

As to `O=c1cc(OCCOc2cccc(F)c2)ccn1-c1ccc(F)cc1`, the IC50 in [2] was found to be 350 nM. Besides, the Emin in [3] amounted to 3.56%. Also, the EC50 in data set [5] was found to be 1500 nM. Moreover, in data set [4], the Emax was determined as 93%.

In the case of `O=c1nc(OCCOc2ccccc2)ccn1-c1ccc(F)cc1`, the IC50 in data set [2] was 290 nM; in data set [9], greater than 30000 nM. Besides, the Emin in [3] worked out at 3.94%. In addition, the Emax in data set [4] is 97%. For the same compound, the fraction unbound (in general, free concentration divided by total concentration) at 4 h, 5 µM in data set [10] was determined as 0.16.

Take `O=c1nc(OCCOc2ccccc2)ccn1-c1cccc(F)c1`: in data set [2], the IC50 is greater than 10000 nM. Besides, the Emin in data set [3] turned out to be 15.5%. Besides, the Emax in data set [4] was 77%.

For `O=c1cc(OCCOc2ccccc2)ccn1-c1cccc(F)c1`, in data set [2], the half-maximal inhibitory concentration (IC50) was 390 nM. The Emin in data set [3] turned out to be 3.45%. In [5], the EC50 stood at 1900 nM. Besides, the Emax in [4] was 88%.

Turning to `CC(COc1ccn(-c2ccc(F)cc2)c(=O)c1)Oc1ccccc1` (stereo not drawn), the IC50 in data set [2] was 1230 nM; on Cytochrome P450 3A4, greater than 30000 nM; on Cytochrome P450 2D6 it was greater than 30000 nM; at Cytochrome P450 2C9, greater than 30000 nM; at Cytochrome P450 1A2, greater than 30000 nM. Also, in data set [3], the Emin amounted to 3.57%. In data set [5], the EC50 was greater than 30000 nM. The fraction unbound at 4 h, 5 µM stood at 0.04 in data set [10] and 0.1 in data set [11]. Besides, in data set [12], the fraction unbound at 6 h, 5 µM is 0.05. In [13], the Kp (commonly the ratio of the level in a tissue or fluid to that in plasma or blood) is 1.7. The Kp uu in [14] was 1.3.

Turning to `O=c1cc(OCCOc2ncccc2Cl)ccn1-c1ccc(F)cc1`, the half-inhibitory concentration (IC50) in data set [2] was determined as 450 nM. In addition, the Emin in data set [3] was 3.62%. The Emax in [4] turned out to be 94%.

Regarding `C[C@H](COc1ccn(-c2ccc(F)cc2)c(=O)c1)Oc1ccccc1`, the IC50 in data set [2] and in data set [9] was greater than 30000 nM throughout.

`N#Cc1cc(F)cc(-n2ccc(OCCOc3ccccc3)cc2=O)c1`: in data set [2], the IC50 amounted to 270 nM. Also, in [3], the Emin was found to be 3.39%. The Emax in [4] was determined as 27%.

As to `O=c1cc(OCCOc2ccccc2)ccn1-c1ccc(F)cc1`, the IC50 in data set [2] was 930 nM. Moreover, the Emin in data set [3] turned out to be 2.69%. For the same compound, the EC50 in data set [5] came to 560 nM. In addition, in data set [4], the Emax was 97%.
